Laboratory results reported in the supplement of paper PMC11208160.

Assay: recombinant UMI read abundance after kanamycin selection (control-corrected) (log10(CPM+1)); higher = more efficient recombination; extreme values may be limits of the assay; sequences stand for … in AGTGCAGAGAAAATCGGCCAGTTTTCTCTGCCTGCAGTCCGCATGCCGTGGGACCCCTTGGGTTCTAACCTGTTGCCTAGATTTATGCAGCGGACTGCCTTTCTCCCAAAGTGATAAACCGG…AGGTTGGTTTCACT; site = the 11-nt donor
Procedure, shortened: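 In Escherichia coli, a pool of donor and donor-binding-loop pairs, each with a 12-nt UMI, was tested for the IS621 bridge recombinase. Plating was on IPTG (0.07 mM) plus kanamycin, or without selection, in two replicates. Recombinant UMIs were amplified by PCR across the donor–target junction and sequenced, and counts were reported as log10(CPM+1) after averaging and control-derived scaling.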
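Further: IS621 bridge recombinase in Escherichia coli cells against a fixed T5 target plasmid.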

| Sequence | recombinant UMI read abundance (log10) |
| --- | --- |
| CCAACTACATGGACCGGTTTTCCCGGTAATCCGTATTTGAC (site CCAACTACTGT) | 0.998 |
| CCAAGGGCATGGACCGGTTTTCCCGGTAATCCGTATTTGCT (site CCAAGGGCTAG) | 0 |
| CCACCAGCATGGACCGGTTTTCCCGGTAATCCGTATTTGTA (site CCACCAGCTTA) | 1.17 |
| CCACTAACATGGACCGGTTTTCCCGGTAATCCGTATTTGGA (site CAACTAACTTC) | 0.0202 |
| CCACTAACATGGACCGGTTTTCCCGGTAATCCGTATTTGGA (site CCACTAACTTC) | 0.235 |
| CCACTAACATGGACCGGTTTTCCCGGTAATCCGTATTTGGA (site CGACTAACTTC) | 0.0202 |
| CCACTAACATGGACCGGTTTTCCCGGTAATCCGTATTTGGA (site CTACTAACTTC) | 0.0175 |
| CCACTATCATGGACCGGTTTTCCCGGTAATCCGTATTTGAC (site CCACTATCTGT) | 1.02 |
| CCACTATCATGGACCGGTTTTCCCGGTAATCCGTATTTGAC (site CTAGTATCTGT) | 0 |
| CCAGAGACATGGACCGGTTTTCCCGGTAATCCGTATTTGCG (site ACAGAGACTCG) | 0.249 |
| CCAGAGACATGGACCGGTTTTCCCGGTAATCCGTATTTGCG (site CCAGAGACTCG) | 1.76 |
| CCAGAGACATGGACCGGTTTTCCCGGTAATCCGTATTTGCG (site GCAGAGACTCG) | 0.0188 |
| CCAGAGACATGGACCGGTTTTCCCGGTAATCCGTATTTGCG (site TCAGAGACTCG) | 0.381 |
| CCAGCGCCATGGACCGGTTTTCCCGGTAATCCGTATTTGTG (site CAAGCGCCTCA) | 0.0258 |
| CCAGCGCCATGGACCGGTTTTCCCGGTAATCCGTATTTGTG (site CCAGCGCCTCA) | 0.045 |
| CCAGCGCCATGGACCGGTTTTCCCGGTAATCCGTATTTGTG (site CGAGCGCCTCA) | 0.0423 |
| CCAGCGCCATGGACCGGTTTTCCCGGTAATCCGTATTTGTG (site CTAGCGCCTCA) | 0 |
| CCAGCTGCATGGACCGGTTTTCCCGGTAATCCGTATTTGAT (site CCAGATGCTAT) | 0.00428 |
| CCAGCTGCATGGACCGGTTTTCCCGGTAATCCGTATTTGAT (site CCAGCTGCTAT) | 1.7 |
| CCAGCTGCATGGACCGGTTTTCCCGGTAATCCGTATTTGAT (site CCAGGTGCTAT) | 0.00694 |
| CCAGCTGCATGGACCGGTTTTCCCGGTAATCCGTATTTGAT (site CCAGTTGCTAT) | 0.00911 |
| CCAGGGCCATGGACCGGTTTTCCCGGTAATCCGTATTTGTG (site CCAGGGCCTCA) | 0.00753 |
| CCAGGTCCATGGACCGGTTTTCCCGGTAATCCGTATTTGAT (site CCAGGTACTAT) | 0 |

| Sequence | recombinant UMI read abundance (log10) |
| --- | --- |
| CCAGGTCCATGGACCGGTTTTCCCGGTAATCCGTATTTGAT (site CCAGGTCCTAT) | 0.341 |
| CCAGGTCCATGGACCGGTTTTCCCGGTAATCCGTATTTGAT (site CCAGGTGCTAT) | 0 |
| CCAGGTCCATGGACCGGTTTTCCCGGTAATCCGTATTTGAT (site CCAGGTTCTAT) | 0 |
| CCAGGTGCATGGACCGGTTTTCCCGGTAATCCGTATTTGAA (site CCAGGTGCTAT) | 0.00736 |
| CCAGGTGCATGGACCGGTTTTCCCGGTAATCCGTATTTGAA (site CCAGGTGCTCT) | 0.218 |
| CCAGGTGCATGGACCGGTTTTCCCGGTAATCCGTATTTGAA (site CCAGGTGCTGT) | 0 |
| CCAGGTGCATGGACCGGTTTTCCCGGTAATCCGTATTTGAA (site CCAGGTGCTTT) | 1.73 |
| CCAGGTGCATGGACCGGTTTTCCCGGTAATCCGTATTTGAC (site CCAGGTGCTAT) | 0.0299 |
| CCAGGTGCATGGACCGGTTTTCCCGGTAATCCGTATTTGAC (site CCAGGTGCTCT) | 0.00976 |
| CCAGGTGCATGGACCGGTTTTCCCGGTAATCCGTATTTGAC (site CCAGGTGCTGT) | 0.637 |
| CCAGGTGCATGGACCGGTTTTCCCGGTAATCCGTATTTGAC (site CCAGGTGCTTT) | 0.00791 |
| CCAGGTGCATGGACCGGTTTTCCCGGTAATCCGTATTTGGT (site CCAGGTGCTAA) | 0.0181 |
| CCAGGTGCATGGACCGGTTTTCCCGGTAATCCGTATTTGGT (site CCAGGTGCTAC) | 0.188 |
| CCAGGTGCATGGACCGGTTTTCCCGGTAATCCGTATTTGGT (site CCAGGTGCTAG) | 0 |
| CCAGGTGCATGGACCGGTTTTCCCGGTAATCCGTATTTGGT (site CCAGGTGCTAT) | 0.541 |
| CCAGTAGCATGGACCGGTTTTCCCGGTAATCCGTATTTGAC (site CCAGTAGCTGT) | 2.06 |
| CCAGTAGCATGGACCGGTTTTCCCGGTAATCCGTATTTGAC (site CTAGTATCTGT) | 0 |
| CCAGTATCATGGACCGGTTTTCCCGGTAATCCGTATTTGCA (site ACAGTATCTTG) | 1.07 |
| CCAGTATCATGGACCGGTTTTCCCGGTAATCCGTATTTGCA (site CCAGTATCTTG) | 2.21 |
| CCAGTATCATGGACCGGTTTTCCCGGTAATCCGTATTTGCA (site GCAGTATCTTG) | 0 |
| CCAGTATCATGGACCGGTTTTCCCGGTAATCCGTATTTGCA (site TCAGTATCTTG) | 0 |
| CCAGTGACATGGACCGGTTTTCCCGGTAATCCGTATTTGGT (site CCAGTGACTAC) | 0 |
| CCATATGCATGGACCGGTTTTCCCGGTAATCCGTATTTGGC (site CCATATGCTGC) | 0.0195 |

| Sequence | recombinant UMI read abundance (log10) |
| --- | --- |
| CCATCGCCATGGACCGGTTTTCCCGGTAATCCGTATTTGGA (site CCATCGCCTTC) | 0.0195 |
| CCATGGTCATGGACCGGTTTTCCCGGTAATCCGTATTTGTT (site CCATGGTCTAA) | 1.06 |
| CCATTATCATGGACCGGTTTTCCCGGTAATCCGTATTTGCA (site ACAGTATCTTG) | 0 |
| CCATTATCATGGACCGGTTTTCCCGGTAATCCGTATTTGCA (site CCATTATCTTG) | 0.785 |
| CCATTCCCATGGACCGGTTTTCCCGGTAATCCGTATTTGCT (site CAATTCCCTAG) | 0 |
| CCATTCCCATGGACCGGTTTTCCCGGTAATCCGTATTTGCT (site CCATTCCCTAG) | 0 |
| CCATTCCCATGGACCGGTTTTCCCGGTAATCCGTATTTGCT (site CGATTCCCTAG) | 0 |
| CCATTCCCATGGACCGGTTTTCCCGGTAATCCGTATTTGCT (site CTATTCCCTAG) | 0 |
| CCATTCTCATGGACCGGTTTTCCCGGTAATCCGTATTTGTA (site CCATTCTCTTA) | 0.451 |
| CCCAACACATGGACCGGTTTTCCCGGTAATCCGTATTTGTA (site CCCAACACTTA) | 1.35 |
| CCCAACACATGGACCGGTTTTCCCGGTAATCCGTATTTGTA (site CCCCACACTTA) | 0.0125 |
| CCCAACACATGGACCGGTTTTCCCGGTAATCCGTATTTGTA (site CCCGACACTTA) | 0.0265 |
| CCCAACACATGGACCGGTTTTCCCGGTAATCCGTATTTGTA (site CCCTACACTTA) | 0.00893 |
| CCCAACCCATGGACCGGTTTTCCCGGTAATCCGTATTTGAT (site CCCAACCCTAT) | 0.00723 |
| CCCAAGTCATGGACCGGTTTTCCCGGTAATCCGTATTTGGG (site CCCAAGTCTCC) | 2.38 |
| CCCAATTCATGGACCGGTTTTCCCGGTAATCCGTATTTGCC (site ACCAATTCTGG) | 0 |
| CCCAATTCATGGACCGGTTTTCCCGGTAATCCGTATTTGCC (site CCCAATTCTGG) | 0.628 |
| CCCAATTCATGGACCGGTTTTCCCGGTAATCCGTATTTGCC (site GCCAATTCTGG) | 0 |
| CCCAATTCATGGACCGGTTTTCCCGGTAATCCGTATTTGCC (site TCCAATTCTGG) | 0 |
| CCCACCGCATGGACCGGTTTTCCCGGTAATCCGTATTTGCG (site ACCACCGCTCG) | 0.0127 |
| CCCACCGCATGGACCGGTTTTCCCGGTAATCCGTATTTGCG (site CCCACCGCTCG) | 0.00466 |
| CCCACCGCATGGACCGGTTTTCCCGGTAATCCGTATTTGCG (site GCCACCGCTCG) | 0.0563 |
